From patent US8445451B2, “Macrolides and uses of macrolides” (Basilea Pharmaceutica AG, priority 2008, dated 2013)

Tested on: T1, human PDE4
T1 construct: PDE4 is partially purified from undifferentiated human monocytic cells (U-937) according to Thorpy et al. 1992 (J. Pharmacol. Exp. Ther. 263: 1195)
Experiment: IMAP FP in vitro enzymatic PDE4 inhibition assay
Format: biochemical
Conditions: for IC50: PDE4 partially purified from human monocytic U-937 cells, 90 minutes at room temperature, fluorescence polarization
Description: PDE4 specifically hydrolyzes cAMP and releases the product AMP. The potency of PDE inhibition by said agents is determined in an in vitro enzymatic assay. The assay is commercially available (IMAP™ FP assay Molecular Devices Corp.(MDS)) and is optimized for the use of human PDE4. Fluorescently labeled cAMP is hydrolyzed by PDE4 and in a second step, binding of labeled product to a large binding partner allowed product detection by fluorescence polarization (FP) measurements.
PDE4 is partially purified from undifferentiated human monocytic cells (U-937) according to Thorpy et al. 1992 (J. Pharmacol. Exp. Ther. 263: 1195). […] In addition, PDE4 preparations are validated by inhibition studies with PDE4-specific and unspecific PDE inhibitors.
Stock solutions of test compounds are made in DMSO and diluted in assay buffer (10 mM Tris-HCl, 10 mM MgCl2, 0.1% BSA 0.05% NaN3, pH 7.2) to the desired concentrations. The solutions used in the assay contained test compound in assay buffer with 2% DMSO.
10 μl of substrate (at a concentration recommended by the manufacturer) are mixed with 5 μl of appropriately diluted PDE and 5 μl of test compound solution. 5 μl of reaction buffer with 2% DMSO are used for control reactions. […] After incubation for 90 minutes at room temperature, 60 μl of binding reagent are added as specified by the manufacturer. Binding is allowed to proceed for 30 minutes and fluorescence polarization is measured. Dose dependence of PDE inhibition is measured by assaying dilution series of test compounds in duplicates. IC50 values are determined from the measured activities by curve fitting.

Structure (SMILES) | IC50 [nM] | PDE4-inhibiting activity (up to a concentration of 50 μM in the assay used in the examples)
CCC1OC(=O)C(C)C(OC2CC(C)(OC)C(O)C(C)O2)C(C)C(OC2OC(C)CC(N(C)C)C2O)C(C)(OC)CC(C)C(=O)C(C)C2C(SCCn3c(CCc4cccnc4)nc4c(N)ncnc43)C(=O)OC12C (stereo not drawn) [Example 1] | 13400 | –
CC[C@H]1OC(=O)[C@H](C)[C@@H](O[C@H]2C[C@@](C)(OC)[C@@H](O)[C@H](C)O2)[C@H](C)[C@@H](O[C@@H]2O[C@H](C)C[C@H](N(C)C)[C@H]2O)[C@](C)(OC)C[C@@H](C)C(=O)[C@H](C)[C@H]2[C@H](SCCn3c(Nc4cccnc4)nc4c(N)ncnc43)C(=O)O[C@@]21C [Example 2] | 3900 | –
CC[C@H]1OC(=O)[C@H](C)[C@@H](O[C@H]2C[C@@](C)(OC)[C@@H](O)[C@H](C)O2)[C@H](C)[C@@H](O[C@@H]2O[C@H](C)C[C@H](N(C)C)[C@H]2O)[C@](C)(OC)C[C@@H](C)C(=O)[C@H](C)[C@H]2[C@H](SCCNc3c(C(=O)Nc4c(Cl)cncc4Cl)cnc4c3cnn4CC)C(=O)O[C@@]21C [Example 6] | 370 | –
CC[C@H]1OC(=O)[C@H](C)[C@@H](O[C@H]2C[C@@](C)(OC)[C@@H](O)[C@H](C)O2)[C@H](C)[C@@H](O[C@@H]2O[C@H](C)C[C@H](N(C)C)[C@H]2O)[C@](C)(OC)C[C@@H](C)C(=O)[C@H](C)[C@H]2[C@H](SCCCn3cnc4c(N)ncc(C(=O)Nc5ccncc5)c43)C(=O)O[C@@]21C [Example 8] | 4700 | –
CC[C@H]1OC(=O)[C@H](C)[C@@H](O[C@H]2C[C@@](C)(OC)[C@@H](O)[C@H](C)O2)[C@H](C)[C@@H](O[C@@H]2O[C@H](C)C[C@H](N(C)C)[C@H]2O)[C@](C)(OC)C[C@@H](C)C(=O)[C@H](C)[C@H]2[C@H](SCCCn3cnc4c(N)ncc(C(=O)NCC(=O)OC)c43)C(=O)O[C@@]21C [Example 9] | 24200 | –
CC[C@H]1OC(=O)[C@H](C)[C@@H](O[C@H]2C[C@@](C)(OC)[C@@H](O)[C@H](C)O2)[C@H](C)[C@@H](O[C@@H]2O[C@H](C)C[C@H](N(C)C)[C@H]2O)[C@](C)(OC)C[C@@H](C)C(=O)[C@H](C)[C@H]2[C@H](SCCn3cnc4c(N)ncc(C(=O)Nc5ccncc5)c43)C(=O)O[C@@]21C [Example 10] | 1000 | –
CC[C@H]1OC(=O)[C@H](C)[C@@H](O[C@H]2C[C@@](C)(OC)[C@@H](O)[C@H](C)O2)[C@H](C)[C@@H](O[C@@H]2O[C@H](C)C[C@H](N(C)C)[C@H]2O)[C@](C)(OC)C[C@@H](C)C(=O)[C@H](C)[C@H]2[C@H](SCCn3cnc4c(N)ncc(C(=O)Nc5c(Cl)cncc5Cl)c43)C(=O)O[C@@]21C [Example 11] | 8 | –
CC[C@H]1OC(=O)[C@H](C)[C@@H](O[C@H]2C[C@@](C)(OC)[C@@H](O)[C@H](C)O2)[C@H](C)[C@@H](O[C@@H]2O[C@H](C)C[C@H](N(C)C)[C@H]2O)[C@](C)(OC)C[C@@H](C)C(=O)[C@H](C)[C@H]2[C@H](SCCn3cnc4c(N)nc(NCc5cccnc5)nc43)C(=O)O[C@@]21C [Example 12] | 3800 | –
CC[C@H]1OC(=O)[C@H](C)[C@@H](O)[C@H](C)[C@@H](O[C@@H]2O[C@H](C)C[C@H](N(C)C)[C@H]2O)[C@](C)(OC)C[C@@H](C)C(=O)[C@H](C)[C@H]2[C@H](SCCn3cnc4c(N)ncc(C(=O)Nc5c(Cl)cncc5Cl)c43)C(=O)O[C@@]21C [Example 14] | 4.9 | –
CC[C@H]1OC(=O)[C@H](C)[C@@H](O)[C@H](C)[C@@H](O[C@@H]2O[C@H](C)C[C@H](N(C)C)[C@H]2O)[C@](C)(OC)C[C@@H](C)C(=O)[C@H](C)[C@H]2[C@H](SCCNc3c(C(=O)Nc4c(Cl)cncc4Cl)cnc4c3cnn4CC)C(=O)O[C@@]21C [Example 16] | 110 | –
CC[C@H]1OC(=O)[C@H](C)[C@@H](O[C@H]2C[C@@](C)(OC)[C@@H](O)[C@H](C)O2)[C@H](C)[C@@H](O[C@@H]2O[C@H](C)C[C@H](N(C)C)[C@H]2O)[C@](C)(OC)C[C@@H](C)C(=O)[C@H](C)[C@H]2[C@H](SC)C(=O)O[C@@]21C [reference compound] | – | does not show any PDE4-inhibiting activity
CSCCn1cnc2c(N)ncc(C(=O)Nc3c(Cl)cncc3Cl)c21 [reference compound] | 3600 | –

The next lines start with results.

IC50 [nM] | Structure (SMILES) | PDE4-inhibiting activity (up to a concentration of 50 μM in the assay used in the examples)
3400 | CC[C@H]1OC(=O)[C@H](C)[C@@H](O[C@H]2C[C@@](C)(OC)[C@@H](O)[C@H](C)O2)[C@H](C)[C@@H](O[C@@H]2O[C@H](C)C[C@H](N(C)C)[C@H]2O)[C@](C)(OC)C[C@@H](C)C(=O)[C@H](C)[C@H]2[C@H](SCCN(C(=O)c3ccncc3)c3ccc(OC)c(OC4CCCC4)c3)C(=O)O[C@@]21C [Example 3] | –
280 | CC[C@H]1OC(=O)[C@H](C)[C@@H](O[C@H]2C[C@@](C)(OC)[C@@H](O)[C@H](C)O2)[C@H](C)[C@@H](O[C@@H]2O[C@H](C)C[C@H](N(C)C)[C@H]2O)[C@](C)(OC)C[C@@H](C)C(=O)[C@H](C)[C@H]2[C@H](SCCN(Cc3ccncc3)c3ccc(OC)c(OC4CCCC4)c3)C(=O)O[C@@]21C [Example 4] | –
850 | CC[C@H]1OC(=O)[C@H](C)[C@@H](O[C@H]2C[C@@](C)(OC)[C@@H](O)[C@H](C)O2)[C@H](C)[C@@H](O[C@@H]2O[C@H](C)C[C@H](N(C)C)[C@H]2O)[C@](C)(OC)C[C@@H](C)C(=O)[C@H](C)[C@H]2[C@H](SCCN(Cc3cccnc3)c3ccc(OC)c(OC4CCCC4)c3)C(=O)O[C@@]21C [Example 5] | –
7600 | CC[C@H]1OC(=O)[C@H](C)[C@@H](O[C@H]2C[C@@](C)(OC)[C@@H](O)[C@H](C)O2)[C@H](C)[C@@H](O[C@@H]2O[C@H](C)C[C@H](N(C)C)[C@H]2O)[C@](C)(OC)C[C@@H](C)C(=O)[C@H](C)[C@H]2[C@H](SCCCc3c(C(=O)Nc4ccncc4)ccc(OC)c3OC)C(=O)O[C@@]21C [Example 7] | –
2600 | CC[C@H]1OC(=O)[C@H](C)[C@@H](O[C@H]2C[C@@](C)(OC)[C@@H](O)[C@H](C)O2)[C@H](C)[C@@H](O[C@@H]2O[C@H](C)C[C@H](N(C)C)[C@H]2O)[C@](C)(OC)C[C@@H](C)C(=O)[C@H](C)[C@H]2[C@H](SCCn3cnc4c(N)nc(NCc5ccncc5)nc43)C(=O)O[C@@]21C [Example 13] | –
480 | CC[C@H]1OC(=O)[C@H](C)C(=O)[C@H](C)[C@@H](O[C@@H]2O[C@H](C)C[C@H](N(C)C)[C@H]2O)[C@](C)(OC)C[C@@H](C)C(=O)[C@H](C)[C@H]2[C@H](SCCN(Cc3c(Cl)cncc3Cl)c3ccc(OC)c(OC4CCCC4)c3)C(=O)O[C@@]21C [Example 15] | –
